Measurements: patent US12384765B2, “Catecholamine prodrugs for use in the treatment of Parkinson's Disease” (H. Lundbeck A/S, priority 2019, dated 2025)

Assays:
[1] = target: human 5-HT2B receptor (Homo sapiens (Human), UniProt P41595); assay: 5-HT2B agonist activity assay (IP1 production, HTRF); assay type: cell-based; conditions: for activity at 10 µM: read-out: 5-HT2B agonist activity, percent of control response
Description: Evaluation of the agonist activity of compounds (I), (Ia), (Ib), (Ic), (Ia-iab), compound (2), compound (9), compound (15), compound (27), A2, A3, and A7 at the human 5-HT2B receptor was performed by Eurofins/Cerep (France) measuring the compound effects on inositol monophosphate (IP1) production using the HTRF detection method. Briefly, the human 5-HT2B receptor was expressed in transfected CHO cells. The cells were suspended in a buffer containing 10 mM Hepes/NaOH (pH 7.4), 4.2 mM KCl, 146 mM NaCl, 1 mM CaCl2, 0.5 mM MgCl2, 5.5 mM glucose and 50 mM LiCl, then distributed in microplates at a density of 4100 cells/well and incubated for 30 minutes at 37° C. in the presence of buffer (basal control), test compound or reference agonist. For stimulated control measurement, separate assay wells contained 1 μM 5-HT. Following incubation, the cells were lysed and the fluorescence acceptor (fluorophen D2-labeled IP1) and fluorescence donor (anti-IP1 antibody labeled with europium cryptate) were added. After 60 minutes at room temperature, the fluorescence transfer was measured at lambda(Ex) 337 nm and lambda(Em) 620 and 665 nm using a microplate reader (Rubystar, BMG). The IP1 concentration was determined by dividing the signal measured at 665 nm by that measured at 620 nm (ratio). The results were expressed as a percent of the control response to 1 μM 5-HT. The standard reference agonist was 5-HT, which was tested in each experiment at several concentrations to generate a concentration-response curve from which its EC50 value is calculated as described above for dopamine functional assays.

[2] = Conversion of compounds in human plasma; assay type: in vitro ADME; conditions: for appearance of compound (I) / conversion in vitro: incubation in human plasma and/or human hepatocytes; for Observed metabolite, Incubation in human plasma: 1 μM test compound, 37° C., 0-6 hr, nd: not detected
Description: Frozen human plasma was thawed and then centrifuged at 3200×g for 5 min to remove debris. The pH value of the supernatant was then measured and adjusted to 7.4±0.1 by adding 1% phosphoric acid or 1 N sodium hydroxide. 2 μL of dosing solution (50 μM for test compounds and 100 μM for positive control (propantheline bromide)) was mixed with 98 μL of blank plasma to achieve 1 μM test compound and 2 μM positive control of final concentration. The mixture was incubated, and samples were withdrawn from the incubations at the pre-determined time points of 0, 0.5, 1, 2, 4 and 6 hr (in duplicate) at 37° C. in water bath. At each corresponding time point 10 μL inhibitor and 20 μL ascorbic acid and 2 μL formic acid (20%) are added, and then added 400 μL of “stop solution” (200 ng/mL tolbutamide plus 200 ng/mL labetalol in 50% ACN/MeOH) to precipitate protein. The substance was mixed thoroughly and thereafter Centrifugated at 4,000 rpm for 20 minutes. Then an aliquot of supernatant (50 μL) was transferred from each well to a sample plate and mixed with 100 μL ultrapure water. The plate was shaked at 800 rpm for about 10 minutes before submitting to LC-MS/MS analysis.
Mass spectrometer (LC-MS/MS) Shimadzu LC 20-AD Shimadzu UHPLC API 4000. Analytical column ACQUITY UPLC® BEH Phenyl 1.7 μm 2.1×50 mm. Mobile phase A: 0.1% Formic Acid in Water. Mobile phase B: 0.1% Formic Acid in Acetonitrile. […] Flow rate 0.7 mL/min.

[3] = PK experiments in rats, plasma compound (I) after oral dosing; assay type: in vivo, Han Wistar rats; conditions: for conversion to compound (I) in vivo / Observed metabolite, In vivo PK study after oral dosing (rats): oral dosing, rats
Description: Plasma was placed on water-ice following collection. Final storage at approximately −70° C.
Mobile phase B: Acetonitrile. […] Flow rate 0.5 mL/min.
The rats had unrestricted access to the diet.
Mobile phase B: Acetonitrile+0.2% formic acid. […] Flow rate 0.3 mL/min.
The rats received a standard laboratory diet Teklad 2014C. The rats had unrestricted access to the diet.

human 5-HT2B receptor, sequence (P41595 whole entry): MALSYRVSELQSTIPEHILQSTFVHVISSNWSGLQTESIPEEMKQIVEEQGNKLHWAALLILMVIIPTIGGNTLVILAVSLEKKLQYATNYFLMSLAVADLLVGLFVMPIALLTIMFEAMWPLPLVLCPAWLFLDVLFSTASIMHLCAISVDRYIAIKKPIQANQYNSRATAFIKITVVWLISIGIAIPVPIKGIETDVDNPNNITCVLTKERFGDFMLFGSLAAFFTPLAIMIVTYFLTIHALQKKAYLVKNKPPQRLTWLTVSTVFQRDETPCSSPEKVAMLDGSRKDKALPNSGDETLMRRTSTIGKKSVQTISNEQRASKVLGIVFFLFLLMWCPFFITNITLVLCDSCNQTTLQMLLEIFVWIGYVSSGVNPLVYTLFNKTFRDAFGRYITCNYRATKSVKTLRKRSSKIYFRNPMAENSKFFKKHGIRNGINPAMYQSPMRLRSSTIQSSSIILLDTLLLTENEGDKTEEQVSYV

Structure (SMILES)	activity at 10 µM [1]	appearance of compound (I) / conversion in vitro [2]	Observed metabolite, Incubation in human plasma [2]	other results
CCCN1CCC[C@@H]2Cc3c(ccc(OC)c3O[C@@H]3O[C@H](C(=O)O)[C@@H](O)[C@H](O)[C@H]3O)C[C@H]21 [Compound (15), (2S,3S,4S,5R,6S)-3,4,5-trihydroxy-6-(((4aR,10aR)-7-methoxy-1-propyl-1,2,3,4,4a,5,10,10a-octahydrobenzo[g]quinolin-6-yl)oxy)tetrahydro-2H-pyran-2-carboxylic acid]	0%	no appearance of compound (I)		conversion to compound (I) in vivo [3]: showed conversion in vivo
CCCN1CCC[C@@H]2Cc3c(ccc(OCc4ccccc4)c3O)C[C@H]21.I [Compound A2, (4aR,10aR)-7-(Benzyloxy)-1-propyl-1,2,3,4,4a,5,10,10a-octahydrobenzo[g]quinolin-6-ol hydroiodide]	30%			Observed metabolite, In vivo PK study after oral dosing (rats) [3]: Compound (I)
CCCN1CCC[C@@H]2Cc3c(ccc(O)c3O[C@@H]3O[C@H](C(=O)OCC)[C@@H](OC(=O)C(C)(C)C)[C@H](OC(=O)C(C)(C)C)[C@H]3OC(=O)C(C)(C)C)C[C@H]21 [Compound (14), (2S,3S,4S,5R,6S)-2-(ethoxycarbonyl)-6-(((4aR,10aR)-7-hydroxy-1-propyl-1,2,3,4,4a,5,10,10a-octahydrobenzo[g]quinolin-6-yl)oxy)tetrahydro-2H-pyran-3,4,5-triyl tris(2,2-dimethylpropanoate)]			Compound (6)	
CCCN1CCC[C@@H]2Cc3c(ccc(O[C@@H]4O[C@H](C(=O)OC)[C@@H](OC(C)=O)[C@H](OC(C)=O)[C@H]4OC(C)=O)c3O[C@@H]3O[C@H](C(=O)OC)[C@@H](OC(C)=O)[C@H](OC(C)=O)[C@H]3OC(C)=O)C[C@H]21 [Compound I2, methyl (2S,3S,4S,5R,6S)-6-[[(4aR,10aR)-1-propyl-6-[(2S,3R,4S,5S,6S)-3,4,5-triacetoxy-6-methoxycarbonyl-tetrahydropyran-2-yl]oxy-3,4,4a,5,10,10a-hexahydro-2H-benzo[g]quinolin-7-yl]oxy]-3,4,5-triacetoxy-tetrahydropyran-2-carboxylate]		no vitro conversion		
CCCN1CCC[C@@H]2Cc3c(ccc(OC(=O)C(C)(C)C)c3OC(=O)C(C)(C)C)C[C@H]21 [(Ic), reference compound]	-5%			plasma concentrations of compound (I) after oral dosing (in words) ([3]; oral dosing to Wistar rats): extremely low
CCCN1CCC[C@@H]2Cc3c(ccc(OCc4ccccc4)c3O[C@@H]3O[C@H](C(=O)O)[C@@H](O)[C@H](O)[C@H]3O)C[C@H]21 [Compound (4), (2S,3S,4S,5R,6S)-6-(((4aR,10aR)-7-(benzyloxy)-1-propyl-1,2,3,4,4a,5,10,10a-octahydrobenzo[g]quinolin-6-yl)oxy)-3,4,5-trihydroxytetrahydro-2H-pyran-2-carboxylic acid]			Compound A2	
CCCN1CCC[C@@H]2Cc3c(ccc(O)c3O[C@@H]3O[C@H](C(=O)OC)[C@@H](OC(C)=O)[C@H](OC(C)=O)[C@H]3OC(C)=O)C[C@H]21 [Compound (2), (2S,3R,4S,5S,6S)-2-(((4aR,10aR)-7-hydroxy-1-propyl-1,2,3,4,4a,5,10,10a-octahydrobenzo[g]quinolin-6-yl)oxy)-6-(methoxycarbonyl)tetrahydro-2H-pyran-3,4,5-triyl triacetate]	10%	no appearance of compound (I)	Compound (Id-ia)	Observed metabolite, In vivo PK study after oral dosing (rats) [3]: Compound (I); conversion to compound (I) in vivo [3]: showed conversion in vivo
CCCN1CCC[C@@H]2Cc3c(ccc(O)c3O[C@@H]3OC(C(=O)OC)=C[C@H](OC(C)=O)[C@H]3OC(C)=O)C[C@H]21 [Compound (3), (2R,3R,4S)-2-(((4aR,10aR)-7-hydroxy-1-propyl-1,2,3,4,4a,5,10,10a-octahydrobenzo[g]quinolin-6-yl)oxy)-6-(methoxycarbonyl)-3,4-dihydro-2H-pyran-3,4-diyl diacetate]			Compound (9)	
CCCN1CCC[C@@H]2Cc3c(ccc(O)c3O[C@@H]3O[C@H](C(=O)OCC)[C@@H](OC(C)=O)[C@H](OC(C)=O)[C@H]3OC(C)=O)C[C@H]21 [Compound (11), (2S,3S,4S,5R,6S)-2-(ethoxycarbonyl)-6-(((4aR,10aR)-7-hydroxy-1-propyl-1,2,3,4,4a,5,10,10a-octahydrobenzo[g]quinolin-6-yl)oxy)tetrahydro-2H-pyran-3,4,5-triyl triacetate]		converted to compound (Id-ia)		
CCCN1CCC[C@@H]2Cc3c(ccc(O)c3O[C@@H]3OC(C(=O)O)=C[C@H](O)[C@H]3O)C[C@H]21 [Compound (9), (2R,3R,4S)-3,4-dihydroxy-2-(((4aR,10aR)-7-hydroxy-1-propyl-1,2,3,4,4a,5,10,10a-octahydrobenzo[g]quinolin-6-yl)oxy)-3,4-dihydro-2H-pyran-6-carboxylic acid]	9%	no appearance of compound (I)		conversion to compound (I) in vivo [3]: showed conversion in vivo
CCCN1CCC[C@@H]2Cc3c(ccc(O)c3O[C@@H]3O[C@H](C(=O)OC)[C@@H](OC(=O)C(C)(C)C)[C@H](OC(=O)C(C)(C)C)[C@H]3OC(=O)C(C)(C)C)C[C@H]21 [Compound (26), (2S,3S,4S,5R,6S)-2-(methoxycarbonyl)-6-(((4aR,10aR)-7-hydroxy-1-propyl-1,2,3,4,4a,5,10,10a-octahydrobenzo[g]quinolin-6-yl)oxy)tetrahydro-2H-pyran-3,4,5-triyl tris(2,2-dimethylpropanoate)]			Compound (6)	
CCCN1CCC[C@@H]2Cc3c(ccc(O[C@@H]4O[C@H](C(=O)OC)[C@@H](OC(C)=O)[C@H](OC(C)=O)[C@H]4OC(C)=O)c3OC(C)=O)C[C@H]21 [Compound A3, (2S,3R,4S,5S,6S)-2-(((4aR,10aR)-6-Acetoxy-1-propyl-1,2,3,4,4a,5,10,10a-octahydrobenzo[g]quinolin-7-yl)oxy)-6-(methoxycarbonyl)tetrahydro-2H-pyran-3,4,5-triyl triacetate]			compound (27)	5-HT2B agonist activity, percent of control response ([1]; @ 10 μM): 3% @ 10 μM
CCCN1CCC[C@@H]2Cc3c(ccc(O[C@@H]4O[C@H](C(=O)OC)[C@@H](OC(C)=O)[C@H](OC(C)=O)[C@H]4OC(C)=O)c3O)C[C@H]21 [Compound (27), (2S,3R,4S,5S,6S)-2-(((4aR,10aR)-6-hydroxy-1-propyl-1,2,3,4,4a,5,10,10a-octahydrobenzo[g]quinolin-7-yl)oxy)-6-(methoxycarbonyl)tetrahydro-2H-pyran-3,4,5-triyl triacetate]	2%		Compound (Id-ib)	Observed metabolite, In vivo PK study after oral dosing (rats) [3]: Compound (I)
